Test results taken from patent US20080241834A1, “Method for improving neoadjuvant chemotherapy” (priority 2006, published 2008).

How the values were obtained:
tumor cell lines = details: BRCA1 protein reconstituted into the tumor cell lines; cited from earlier work
lung cancer = details: cited from earlier work
MCF7 cells = details: BRCA1 protein downregulation, premature inactivation of the spindle checkpoint; cited from earlier work
breast cancer = details: cited from earlier work
ovarian cancer = details: cited from earlier work
[1] = system: breast cancer in BRCA1 mutation carriers; experiment: Response to neoadjuvant chemotherapy in breast cancer patients carrying a BRCA1 mutation; format: in vivo, human
Description: (§1) 3479 unselected incident cases of invasive breast cancer were identified at 18 different hospitals in Poland during the study period. The medical records and pathology reports were reviewed locally at the study centre in Szczecin. Information was recorded on age at diagnosis, stage, grade and lymph-node status, estrogen-receptor status, multi-centricity and bilaterality. Pathology review of tumor blocks and/or paraffin-embedded slides were requested from the corresponding pathology centres. One or more specimens were obtained from 3136 of the […] patients. A central pathology review was conducted in Szczecin by two pathologists associated with the study. Pathologists were blinded to mutation status. […] Pre-treatment tumor size was determined in all patients by a combination of clinical examination and mammography (for some patients ultrasound examinations were also performed). Post-treatment size was determined by pathology report. Lymph node status was evaluated prior to and after treatment. Pre-treatment lymph node status was evaluated with a combination of clinical exam, ultrasound and fine needle aspiration. After treatment all patients underwent axillary dissection and node status was evaluated by pathology report. […] The statistical significance of group differences was assessed using Fisher's Exact Test. […]

[2] = system: breast cancer in non-carriers; experiment: Response to neoadjuvant chemotherapy in matched non-carrier breast cancer patients; format: in vivo, human
Description: as §1

| SMILES | sensitivity to paclitaxel (tumor cell lines) | effectivity (lung cancer) [%] | sensitivity to paclitaxel (MCF7 cells) | effectivity (breast cancer) [%] | effectivity (ovarian cancer) | patients with complete or partial response, of patients treated [1] | patients with complete or partial response, of patients treated ([2]; non-carriers) | patients who responded ([2]; non-carriers with ER-negative tumors) |
| --- | --- | --- | --- | --- | --- | --- | --- | --- |
| CC(=O)O[C@H]1C(=O)[C@@]2(C)[C@H]([C@H](OC(=O)c3ccccc3)[C@]3(O)C[C@H](OC(=O)[C@H](O)[C@@H](NC(=O)c4ccccc4)c4ccccc4)C(C)=C1C3(C)C)[C@]1(OC(C)=O)CO[C@@H]1C[C@@H]2O [paclitaxel] | increased | ~20 | insensitive | ~50 | around 30% | – | – | – |
| CC(=O)O[C@@]12CO[C@@H]1C[C@H](O)[C@@]1(C)C(=O)[C@H](O)C3=C(C)[C@@H](OC(=O)[C@H](O)[C@@H](NC(=O)OC(C)(C)C)c4ccccc4)C[C@@](O)([C@@H](OC(=O)c4ccccc4)[C@H]21)C3(C)C [docetaxel] | – | – | – | – | – | 6 of the 15 | 12 of 12 | 4 |
